ChEMBL document CHEMBL3044970, “Isoniazid: the magic molecule” (2012)
Values after ≈ are worked out from the molar mass of the structure shown.

Legend:
Format in all cases: functional
[1] = Selectivity ratio of MIC for Mycobacterium tuberculosis H37Rv to MIC for INH-resistant Mycobacterium tuberculosis clinical isolate
[2] = tested on: Mycobacterium tuberculosis; test: Antimicrobial activity against INH-resistant Mycobacterium tuberculosis
[3] = tested on: Mycobacterium tuberculosis; test: Antimicrobial activity against INH-resistant Mycobacterium tuberculosis by agar dilution method relative to isonicotinoyl hydrazide
[4] = tested on: Mycobacterium tuberculosis; test: Ratio of INH MIC to compound MIC for INH-resistant Mycobacterium tuberculosis
[5] = tested on: Mycobacterium tuberculosis; test: Antimicrobial activity against drug-resistant Mycobacterium tuberculosis infected in macrophages

O=C(c1ccncc1)N1N=C(c2ccco2)CC1(O)C(F)(F)F (stereo unspecified)
Selectivity ratio [1]: 2

O=C(NNC(=S)Nc1ccccc1C(F)(F)F)c1ccncc1
MIC [2]: 0.58 µM (≈ 0.197 µg/mL) | Ratio [3]: 157

COc1cc(C2=NN(C(=O)c3ccncc3)C(c3ccc(O)cc3)C2)ccc1OCC(=O)O (stereo unspecified)
Ratio [4]: 78 | MIC [2]: 0.12 µM (≈ 0.0537 µg/mL)

C/C(=N\NC(=O)c1ccncc1)c1cccc(F)c1
MIC [5]: < 0.05 µg/mL
